Results on three compounds are retold here after patent US10370364B1, “Substituted chromenes for treatment of fibrosis or non-alcoholic steatohepatitis” (OSTEONEUROGEN INC., priority 2018, dated 2019).

Values after ≈ are worked out from the molar mass of the structure shown.

Series [1] in a line: Solubility in phosphate buffer (pH 7.4). The settings on record: phosphate buffer pH 7.4, 1 mg/ml added, 16 hours, HPLC-UV. As to the method:
The compound of the present invention was added to phosphate buffer (pH 7.4) at a concentration of 1 mg/ml and stirred. After 16 hours, the sample was filtered through a filter, and the supernatant was analyzed by HPLC-UV, thereby determining the content of compound dissolved.

For a further series, the system named is C57BL/6 mice. The series is described as follows: Bleomycin-induced pulmonary fibrosis animal model. The series is classed as in vivo. An excerpt:
5-week-old male C57BL/6 mice (weighed 18.2 to 20.5 g) (KOATECH, Korea) were used as experimental animals and divided into several groups, each consisting of 5 animals.
The experimental animals were housed in a housing box having a size of 369 L×156 W×132H (mm) (EU, USA, UK GL compliance) made of a polysulfone material in a SPF (Specific Pathogen Free) and BSL (Bio Safety Level) 2 grade facility. The number of animals in each housing box was 2 to 3 during the period of quarantine and acclimatization and was also 2 to 3 during the experimental period, and the housing conditions were set to a temperature of 22±2° C., a relative humidity of 50.0±15.0%, a ventilation cycle of 10 to 20 times/hr, a light-dark cycle (a photoperiod) of 12 hr/day (07:00 to 19:00), and an illumination intensity of 150 to 300 Lux.
Pulmonary fibrosis was induced by injecting a bleomycin solution directly into the lungs via the trachea according to the intratracheal instillation (IT) method of Kremer, Laxer and Berkman et al. Specifically, C57BL/6J mice were anesthetized through inhalation with 70% N2O and 30% O2 gas and 1.5% isoflurane, and the skin of the anterior neck thereof was excised and the organs under the muscle thereof were exposed and then carefully excised using ophthalmic surgical scissors. 50 μL of a solution of bleomycin in distilled water was injected directly into the lungs all at once via the excised organ by use of a 1 mL syringe fitted with a 19-gauge injection needle having a blunt tip. Immediately after the injection, the excised skin of the anterior neck was sutured and the mice were allowed to recover from the anesthetic, and then housed in a general housing cage. The administration of bleomycin was performed using a visual instillobot, and bleomycin-HCl 40 μg/50 μL was administered once and a pulmonary fibrosis induction period of 12 days was set.
The compound of the present invention was used after dissolution in 30% HPCD aqueous solution (Formulation Example 5), and the dose for each individual was calculated based on the recent body weight thereof. 12 Days after the administration of bleomycin, the compound of the present invention was administered once a day (5 times a week) for 2 weeks. As a control, pirfenidone which is a therapeutic agent for idiopathic pulmonary fibrosis was administered in the same manner.
On 15 days after administration of the compound, the mice were sacrificed, and then the right lung of each mouse was dissected and the weight thereof was measured. […] In particular, it is noted that the inhibitory effect of the compound in the group administered at 10 mpk was the highest compared to that in the group administered at 50 or 100 mpk and was also higher than that in the group administered with pirfenidone 100 mpk.
The amounts of hydroxyproline (HP) and collagen in the dissected right lung were measured using a known method.
Histopathology collagen morphometry of the dissected left lung tissue was performed using a known method (calculating the area of collagen in an optical image obtained by Sirius red staining of the lung tissue sample).
The pathological conditions of the left lung tissue dissected using a known method were examined by H&E and Sirius Red staining. […] In particular, it is noted that the inhibitory effect of the compound in the group administered at 10 mpk was the highest compared to that in the groups administered at other concentrations.
In order to examine the effect of each treatment in this Experiment on the liver, the liver of each of the sacrificed mice was dissected, and the pathological conditions of the liver tissue were examined by H&E staining.

Series [2] is described as follows: Concentration of compound in plasma and lung of bleomycin fibrotic mice. The series is classed as in vivo. The settings on record: 1 hour after final administration; pirfenidone 100 mpk, Compound 1 10-100 mpk PO. As for the experimental part: The amounts of the compound present in the plasma and lung of each of the sacrificed mice (finally administered with each compound at 1 hour before sacrifice) were measured. […] If it is attempted to formulate the compound of the present invention in various manners, it is expected that the compound of the present invention can effectively treat fibrosis even at lower concentrations.

In another series the test system is STAM mice. In words: Non-alcoholic steatohepatitis animal model (STAM mice), NAFLD activity score. Type of series: in vivo. Conditions: 30 mpk oral. As for the experimental part: STAM mice (SMC Laboratories, Inc., Japan), which are non-alcoholic steatohepatitis animal models, were used as experimental animals. These animal models were administered with streptozotocin immediately after birth, and fed with high-fat-diet after 3 weeks. Then, in the mouse model, non-alcoholic steatohepatitis occurred at 6 to 9 weeks, and liver fibrosis, cirrhosis and liver cancer occurred within 9 to 12 weeks.
Over 6 to 9 weeks after administration of streptozotocin, the compound of the present invention, dissolved in a mixture solution of Tween80 and 0.5% CMC aqueous solution (1:99 (v/v)) (Formulation Example 2), was orally administered to the animal models once a day (five times a week). As controls, telmisartan and OCA (obeticholic acid) were administered in the same manner.
At […] after administration of streptozotocin (a time point after 3-week administration of the compound), the mice were sacrificed, the liver of each mouse was dissected, the invasion of inflammatory cells was observed by […] of the liver tissue, and fibrosis of the liver tissue was observed by Sirius Red staining (see FIG. 42). In addition, the degrees of inflammation, fibrosis, liver cell ballooning and adipose accumulation observed were measured, data integration was performed, and the NAFLD (nonalcoholic fatty liver disease) activity score was statistically processed by t-test.

The term Solubility denotes the concentration that dissolves in the medium under given conditions. Low readings indicate little dissolved substance, high ones much dissolved substance. With `CC/C(=C(/CC)c1ccc(O)cc1)c1ccc(O)cc1` [Diethyl stilbesterol, reference compound], the Solubility in series [1] turned out to be 4.50 µg/mL (≈ 16.8 µM).

In the case of `Cc1ccc(=O)n(-c2ccccc2)c1` [Pirfenidone, reference compound], in the series with C57BL/6 mice (100 mpk PO), the “Protection Collagen %” value worked out at 34%. Further, the “Mean Collagen % (histopathology collagen morphometry, left lung)” value with C57BL/6 mice (100 mpk PO, Sirius red) is listed as 4.1%. The “pathological condition of liver tissue, H&E staining” value in the series on C57BL/6 mice (bleomycin mice, 100 mpk) is on record as “showed hepatotoxic symptoms”. In addition, in series [2], the “concentration of the compound in the lung” value is “high” and the “concentration of the compound in the plasma” value is “high”.

As to `CCCc1nc2c(C)cc(-c3nc4ccccc4n3C)cc2n1Cc1ccc(-c2ccccc2C(=O)O)cc1` [telmisartan, reference compound], the “NAFLD activity score (t-test)” value in the series with STAM mice is on record as “statistically significant anti-NASH effects”.
